Assay results: ChEMBL document CHEMBL5608163, “Structure modification of anoplin for fighting resistant bacteria” (Eur J Med Chem, 2024)
≈ marks a conversion by molar mass, not a printed value. Square brackets hold non-standard residues; d marks the D form. Peptide text beside a SMILES is read from it. * marks the point of attachment. Heptadecanoyl = CCCCCCCCCCCCCCCCC(=O)*; 2Nal = N[C@@H](Cc1ccc2ccccc2c1)C(=O)O; Cha = N[C@@H](CC1CCCCC1)C(=O)O

What was measured:
[1] = system: Mycolicibacterium smegmatis; assay: Antimycobacterial activity against Mycobacterium smegmatis mc2 155 assessed as reduction in bacterial cell growth incubated for 24 hrs by resazurin dye based broth microdilution method; type: functional
[2] = system: Bacillus subtilis; assay: Antimicrobial activity against Bacillus subtilis assessed as microbial growth inhibition incubated for 24 hrs by broth micro-dilution method; type: functional
[3] = system: Escherichia coli; assay: Antibacterial acitivity against Escherichia coli DH5a assessed as bacterial growth inhibition incubated for 24 hrs by broth micro-dilution method; type: functional
[4] = system: Zymomonas mobilis; assay: Antibacterial activity against Zymomonas mobilis ATCC 10988 assessed as reduction in bacterial growth incubated for 24 hrs by broth micro-dilution method; type: functional
[5] = system: Pseudomonas aeruginosa; assay: Antimicrobial activity against Pseudomonas aeruginosa assessed as inhibition of microbial growth incubated for 24 hrs by microdilution method; type: functional
[6] = Hemolytic activity against human Red blood cells assessed as cell lysis; type: toxicity, cell-based, Erythrocyte
[7] = Hemolytic activity in human RBC; type: toxicity, cell-based, Erythrocyte; details: red blood cells
[8] = system: Staphylococcus aureus; assay: Antibacterial activity against methicillin-resistant Staphylococcus aureus ATCC 33591 assessed as reduction in bacterial growth incubated for 16 to 24 hrs by agar dilution method; type: functional; details: time 16-24 hrs
[9] = system: Enterococcus faecium; assay: Antibacterial activity against vancomycin resistant Enterococcus faecium NCTC 12204 assessed as reduction in bacterial growth by microdilution broth method; type: functional
[10] = system: Escherichia coli; assay: Antibacterial activity against Escherichia coli ATCC 25922 assessed as reduction in bacterial growth incubated for 18 to 24 hrs by broth microdilution method; type: functional; details: time 18-24 hrs
[11] = system: Pseudomonas aeruginosa; assay: Antibacterial activity against Pseudomonas aeruginosa ATCC 15442 assessed as reduction in bacterial cell growth incubated for 18 to 24 hrs by two fold serial microdilution method; type: functional; details: time 18-24 hrs
[12] = Hemolytic activity against Red blood cells (unknown origin) incubated for 1 hr by spectrophotometric analysis; type: toxicity, cell-based, Erythrocyte
[13] = system: Staphylococcus aureus; assay: Antibacterial activity against Staphylococcus aureus ATCC 25923 assessed as reduction in bacterial growth incubated for 48 hrs by Mueller-Hinton broth based microdilution method; type: functional
[14] = system: Escherichia coli; assay: Antibacterial activity against Escherichia coli ATCC 25922 assessed as reduction in bacterial growth incubated for 48 hrs by Mueller-Hinton broth based microdilution method; type: functional
[15] = Hemolytic activity in human erythrocyte incubated for 1 hr; type: toxicity, cell-based; details: erythrocytes

Row | SMILES | HC50 [7] [µM] | MIC [8] [µM] | MIC [9] [µM] | MIC [10] [µM] | MIC [11] [µM] | HC50 at 1 h [12] [µM] | MIC [13] [µM] | MIC [14] [µM] | HC50 at 1 h [15] [µM] | also measured
1 | CC[C@H](C)[C@H](NC(=O)[C@H](CCCCN)NC(=O)[C@H](CCCCN)NC(=O)[C@H](CC(C)C)NC(=O)[C@H](CC(C)C)NC(=O)CN)C(=O)N[C@@H](CCCCN)C(=O)N[C@@H](CCCNC(=N)N)C(=O)N[C@@H](CC(C)C)C(=O)N[C@@H](CC(C)C)C(N)=O (H-GLLKKIKRLL-NH2) | – | – | – | – | – | – | – | – | – | MIC [1]: 0.9 µM (≈ 1.06 µg/mL); MIC [2]: 170 µM (≈ 200 µg/mL); MIC [3]: 170 µM (≈ 200 µg/mL); MIC [4]: 4.2 µM (≈ 4.96 µg/mL); MIC [5]: 5.9 µM; HC50 [6]: > 170 µM
2 | CC(C)C[C@H](NC(=O)CN)C(=O)N[C@@H](CC(C)C)C(=O)N[C@@H](CCCCN)C(=O)N[C@@H](CCCCN)C(=O)N[C@@H](Cc1ccc2ccccc2c1)C(=O)N[C@@H](CCCCN)C(=O)N[C@H](C(=O)N[C@@H](CC(C)C)C(=O)N[C@@H](CC1CCCCC1)C(N)=O)[C@@H](C)O (H-GLLKK[2Nal]KTL[Cha]-NH2) | 26.6 | 9.5 (≈ 11.9 µg/mL) | 4.6 (≈ 5.75 µg/mL) | 9.5 (≈ 11.9 µg/mL) | 6.6 (≈ 8.25 µg/mL) | 26.6 | – | – | – | –
3 | CC[C@H](C)[C@H](NC(=O)[C@H](CCCNC(=N)N)NC(=O)[C@H](CCCCN)NC(=O)[C@H](CC(C)C)NC(=O)[C@H](CC(C)C)NC(=O)CN)C(=O)N[C@@H](CCCCN)C(=O)N[C@@H](CCCCN)C(=O)N[C@@H](CC(C)C)C(=O)N[C@@H](CC1CCCCC1)C(N)=O (H-GLLKRIKKL[Cha]-NH2) | 12.4 | 9.5 (≈ 11.6 µg/mL) | 9.5 (≈ 11.6 µg/mL) | 9.5 (≈ 11.6 µg/mL) | 4.6 (≈ 5.62 µg/mL) | 12.4 | – | – | – | –
4 | CC[C@H](C)[C@H](NC(=O)[C@H](CCCCN)NC(=O)[C@H](CCCCN)NC(=O)[C@H](CC(C)C)NC(=O)[C@H](CC1CCCCC1)NC(=O)CN)C(=O)N[C@@H](CCCCN)C(=O)N[C@@H](CCCCN)C(=O)N[C@@H](CC(C)C)C(=O)N[C@@H](CC1CCCCC1)C(N)=O (H-G[Cha]LKKIKKL[Cha]-NH2) | 0.5 | 3.2 (≈ 3.94 µg/mL) | 3.2 (≈ 3.94 µg/mL) | 4.6 (≈ 5.67 µg/mL) | 3.2 (≈ 3.94 µg/mL) | 0.5 | – | – | – | –
5 | CC(C)C[C@H](NC(=O)[C@H](CC(C)C)NC(=O)[C@@H](NC(=O)[C@H](CCCCN)NC(=O)[C@H](Cc1ccc2ccccc2c1)NC(=O)[C@H](CCCCN)NC(=O)[C@H](CCCCN)NC(=O)[C@H](CC(C)C)NC(=O)[C@H](CC1CCCCC1)NC(=O)CN)[C@@H](C)O)C(N)=O (H-G[Cha]LKK[2Nal]KTLL-NH2) | 15.3 | 28.4 (≈ 35.5 µg/mL) | 9.5 (≈ 11.9 µg/mL) | 9.5 (≈ 11.9 µg/mL) | 9.5 (≈ 11.9 µg/mL) | 15.3 | – | – | – | –
6 | CCCCCCCCCCCCCCCCC(=O)NCC(=O)N[C@@H](CC(C)C)C(=O)N[C@@H](CC(C)C)C(=O)N[C@@H](CCCCN)C(=O)N[C@@H](CCCNC(=N)N)C(N)=O (Heptadecanoyl-GLLKR-NH2) | – | – | – | – | – | – | 3.94 (≈ 3.3 µg/mL) | 7.88 (≈ 6.6 µg/mL) | 80.2 | –
7 | CCCCCCCCCCCCCCCCC(=O)NCC(=O)N[C@@H](CC(C)C)C(=O)N[C@@H](CC(C)C)C(=O)N[C@@H](CCCCN)C(=O)N[C@@H](CCCNC(=N)N)C(=O)N[C@H](C(N)=O)[C@@H](C)CC (Heptadecanoyl-GLLKRI-NH2) | – | – | – | – | – | – | 0.66 (≈ 0.627 µg/mL) | 3.47 (≈ 3.3 µg/mL) | 8.01 | –
8 | CCCCCCCCCCCCCCCCC(=O)NCC(=O)N[C@@H](CC(C)C)C(=O)N[C@@H](CC(C)C)C(=O)N[C@@H](CCCCN)C(=O)N[C@@H](CCCNC(=N)N)C(=O)N[C@H](C(=O)N[C@@H](CCCCN)C(N)=O)[C@@H](C)CC (Heptadecanoyl-GLLKRIK-NH2) | – | – | – | – | – | – | 0.76 (≈ 0.82 µg/mL) | 1.53 (≈ 1.65 µg/mL) | 35.4 | –
9 | CCCCCCCCCCCCCCCCC(=O)NCC(=O)N[C@@H](CC(C)C)C(=O)N[C@@H](CC(C)C)C(=O)N[C@@H](CCCCN)C(=O)N[C@@H](CCCNC(=N)N)C(=O)N[C@H](C(=O)N[C@@H](CCCCN)C(=O)N[C@H](C(N)=O)[C@@H](C)O)[C@@H](C)CC (Heptadecanoyl-GLLKRIKT-NH2) | – | – | – | – | – | – | 1.4 (≈ 1.65 µg/mL) | 2.8 (≈ 3.3 µg/mL) | 29 | –
10 | CCCCCCCCCCCCCCCCC(=O)NCC(=O)N[C@@H](CC(C)C)C(=O)N[C@@H](CC(C)C)C(=O)N[C@@H](CCCCN)C(=O)N[C@@H](CCCNC(=N)N)C(=O)N[C@H](C(=O)N[C@@H](CCCCN)C(=O)N[C@H](C(=O)N[C@@H](CC(C)C)C(=O)N[C@@H](CC(C)C)C(=O)O)[C@@H](C)O)[C@@H](C)CC (Heptadecanoyl-GLLKRIKTLL-OH) | – | – | – | – | – | – | 0.32 (≈ 0.45 µg/mL) | 0.32 (≈ 0.45 µg/mL) | 14.8 | –
